Measured values taken from US20130123287A1, “CONTROL AGENT FOR SOFT ROT AND CONTROL METHOD FOR THE SAME” (ISHIHARA SANGYO KAISHA, LTD., priority 2010, published 2013).

System: bacteria causing the soft rot (Erwinia carotovora)
Test: Inhibition test of growth of bacteria causing soft rot, Reference Test Example 2
Type: cell-based
Settings: for formed colonies (growth state), grade: PSA medium, 27 degrees Celsius, 2 days
From the text: Inhibition test of growth of bacteria causing soft rot of potato An inhibition test of the growth of bacteria causing the soft rot was done, when a control agent was directly applied to the bacteria causing the soft rot. A given volume of each pesticide of azoxystrobin (Amistar-20 FLOWABLE [trade name], manufactured by Syngenta Japan K.K.), penthiopyrad (GAIA WG [trade name], manufactured by Mitsui Chemicals Agro, Inc.), flusulfamide (SCABLOCK SC [trade name] manufactured by Mitsui Chemicals Agro, Inc.), and streptomycin (Mycin Wettable powder [trade name] manufactured by Hokko Chemical Industry Co., Ltd.) was added together with a suspension of the bacteria causing the soft rot (Erwinia carotovora) to a preliminarily dissolved PSA culture medium (55 degrees Celsius) for subsequent thorough agitation, which was then spread on a plate for culturing at 27 degrees Celsius for 2 days, to examine the growth state. Subsequently, the formed colonies were examined according to the following three grades. • +: at the same level as the level of non-treated lot.
Plus or minus: apparently less than the colonies of the non-treated lot. • −: almost no colonies observed.

[H]/N=C(/N)N[C@H]1[C@H](O)[C@@H](O)[C@H](O[C@@H]2O[C@@H](C)[C@](O)(C=O)[C@H]2O[C@@H]2O[C@@H](CO)[C@H](O)[C@@H](O)[C@@H]2NC)[C@@H](N/C(N)=N\[H])[C@@H]1O [Streptomycin]
formed colonies (growth state), grade (1 ppm active ingredient): −, −
formed colonies (growth state), grade (10 ppm active ingredient): −, −
direct antibacterial activity against Erwinia carotovora (in words) (active ingredient concentration of 1 ppm): exerted a direct antibacterial activity
